# pIC50: −log10 of the molar value.
# Molecular target: T1, stearoyl-CoA desaturase (SCD) (Rattus norvegicus, UniProt P07308)
# T1 construct: The microsomes were quickly thawed and added to assay buffer so that a concentration of 0.4 mg/ml was achieved; from tissue
# T1 sequence (P07308 1-358): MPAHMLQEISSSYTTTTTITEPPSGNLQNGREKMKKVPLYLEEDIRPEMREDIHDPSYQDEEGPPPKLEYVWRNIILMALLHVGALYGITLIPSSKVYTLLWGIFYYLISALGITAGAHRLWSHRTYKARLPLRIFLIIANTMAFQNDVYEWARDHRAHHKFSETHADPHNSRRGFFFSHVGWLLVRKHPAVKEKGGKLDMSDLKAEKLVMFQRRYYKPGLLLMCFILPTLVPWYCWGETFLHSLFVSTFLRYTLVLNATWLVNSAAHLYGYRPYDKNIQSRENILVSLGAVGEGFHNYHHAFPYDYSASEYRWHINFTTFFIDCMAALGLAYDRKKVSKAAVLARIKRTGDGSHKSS
# Assay: SCD assay with rat liver microsomes ([3H]stearoyl CoA, adapted from Talamo and Bloch)
# Type: biochemical
# Details: Table 1; rat liver microsomes 0.2 mg/ml assay final, [3H]stearoyl CoA substrate, 30 min preincubation, 45 min reaction, room temperature
# Excerpt: Male Spraque Dawley Rats were placed on regimented fasting protocol for one week to stimulate SCD enzymatic activity. 48-hour periods were alternated between feeding and fasting to induce and down-regulate SCD activity with SCD activity being induced via carbohydrate rich diet prior to liver perfusion and collection.
# The rats were anesthetized with Isoflurane inhalation anesthetic, the liver perfused with cold phosphate buffered saline (PBS), weighed, and chilled in cold homogenization buffer (250 mM sucrose, 10 mM Tris, 1 mM EDTA, pH 7.6.
# The livers were finely minced and placed in homogenization tube. 40 mL of homogenization buffer was added to the homogenization tube and the liver homogenized and centrifuged in a pre-chilled […] for 10 min at 4° C.
# Following centrifugation, the supernatant was collected and the pellet removed and discarded. The supernatant was centrifuge at 10,000 G for 35 minutes. Following centrifugation, the supernatant was collect and the pellet discarded. The supernatant was then centrifuged in a pre-chilled 45-Ti rotor at 130,000 G (41,000 RPM) for 90 minutes at 4° C.
# The supernatant was then aspirated off and the collected microsomal pellet washed in 25 mL of Glycerol PBS (1×PBS 7.4, 20% Glycerol) and resuspended in 4-5 volumes of Glycerol PBS.
# The protein concentration of the microsomal preparation was determined by BCA assay (Pierce) and the microsomes were aliquoted and stored at −80° C.
# Biobeads were ground to a smaller size in a mortar and pestle and resuspended in 3.6% TCA. The beads were then filtered through […] mesh.
# SCD was determined in the desaturase assay buffer. This assay buffer contained 0.1 M Tris buffer, pH 7.2, 2 mM NADH, 4.8 mM ATP, 0.5 mM CoA, 4.8 mM MgCl2, and 0.1% BSA.
# 1 μl of each compound of Formula I was added to an assay plate by a low volume (0.5-10 μL) multichannel pipette. A DMSO control was also prepared. The microsomes were quickly thawed and added to assay buffer so that a concentration of 0.4 mg/ml was achieved (0.2 mg/ml assay final). 50 μl of the microsome suspension in assay buffer was then added into each well in the compound assay plate, the plate was covered, and the microsomes preincubated with the compounds for 30 minutes on the orbital shaker, 50-75 rpm, at room temperature.
# The reaction mixtures were then incubated for 45 minutes on the orbital shaker at 50-75 rpm at room temperature.
# The reaction was terminated by the addition of 10 μl of 21% trichloroacetic acid (TCA) to the reaction mixture followed incubation on the orbital shaker for 30 minutes at 50-75 rpm at room temperature followed by centrifugation for 5 minutes at 3700 rpm.
# 50 μl of a 6% Bio-Bead suspension in H2O was added to the reaction mixture and the assay plate was sealed. The Bio-Bead mixture was incubated on the orbital shaker for 1 hour, 100-150 rpm at room temperature, and then the mixture was centrifuged at 2000 g for 5 minutes to pellet the Bio-Beads.
# 25 μl of the supernatant was harvested from each well and transferred to a detection plate. 100 μl of OptiPhase SuperMix scinitillation cocktail (containing sufficient NaOH to neutralize the TCA) was added and the solutions mixed by vigorous shaking (300-400 rpm) for 5 minutes at room temperature.
row,SMILES,pIC50
1,"O=C(CO)Nc1ccc2ncn(Cc3ccc(C(F)(F)F)cc3)c(=O)c2c1 [XCVII, 2-hydroxy-N-(4-oxo-3-{[4-(trifluoromethyl)phenyl]methyl}(3-hydroquinazolin-6-yl))acetamide]",5.50
2,"CC(=O)OCC(=O)Nc1ccc2ncn(Cc3ccc(Cl)c(F)c3)c(=O)c2c1 [XCVIII, (N-{3-[(4-chloro-3-fluorophenyl)methyl]-4-oxo-3-hydroquinazolin-6-yl}carbamoyl)methyl acetate]",5.88
3,"CC(=O)OCC(=O)Nc1ccc2c(=O)n(Cc3ccc(F)c(Cl)c3)cnc2c1 [LXXV, (N-{3-[(3-chloro-4-fluorophenyl)methyl]-4-oxo-3-hydroquinazolin-7-yl}carbamoyl)methyl acetate]",5.96
4,"O=C(CO)Nc1ccc2c(=O)n(Cc3ccc(Cl)c(Cl)c3)cnc2c1 [LXXXII, N-{3-[(3,4-dichlorophenyl)methyl]-4-oxo(3-hydroquinazolin-7-yl)}-2-hydroxyacetamide]",6.46
5,"O=C(Nc1ccc2ncn(Cc3ccc(Cl)c(Cl)c3)c(=O)c2c1)Oc1ccc(Cl)cc1 [LXX, N-{3-[(3,4-dichlorophenyl)methyl]-4-oxo(3-hydroquinazolin-6-yl)}(4-chlorophenoxy)carboxamide]",5.49
6,"Cc1ccc(OC(=O)Nc2ccc3ncn(Cc4ccc(Cl)c(Cl)c4)c(=O)c3c2)cc1 [XI, N-{3-[(3,4-dichlorophenyl)methyl]-4-oxo(3-hydroquinazolin-6-yl)}(4-methylphenoxy)carboxamide]",5.57
7,"O=C(COc1cccc(F)c1)Nc1ccc2ncn(Cc3ccc(Cl)cc3)c(=O)c2c1 [XLIII, N-{3-[(4-chlorophenyl)methyl]-4-oxo(3-hydroquinazolin-6-yl)}-2-(3-fluorophenoxy)acetamide]",5.19

# The remaining lines, values ahead:
row,pIC50,SMILES
1,6.11,"O=C(Nc1ccc2ncn(Cc3ccc(Cl)c(Cl)c3)c(=O)c2c1)OCc1ccccn1 [LXXXIX, N-{3-[(3,4-dichlorophenyl)methyl]-4-oxo(3-hydroquinazolin-6-yl)}(2-pyridylmethoxy)carboxamide]"
2,6.07,"O=C(Nc1ccc2ncn(Cc3ccc4sccc4c3)c(=O)c2c1)OCc1ccccc1 [XLV, N-[3-(benzo[b]thiophen-5-ylmethyl)-4-oxo(3-hydroquinazolin-6-yl)](phenylmethoxy)carboxamide]"
3,5.33,"COC(=O)Nc1ccc2ncn(Cc3ccc(Cl)c(Cl)c3)c(=O)c2c1 [XIII, N-{3-[(3,4-dichlorophenyl)methyl]-4-oxo(3-hydroquinazolin-6-yl)}methoxycarboxamide]"
4,5.53,"Cc1cc(C)cc(OCC(=O)Nc2ccc3ncn(Cc4ccc(Cl)c(Cl)c4)c(=O)c3c2)c1 [XX, N-{3-[(3,4-dichlorophenyl)methyl]-4-oxo(3-hydroquinazolin-6-yl)}-2-(3,5-dimethylphenoxy)acetamide]"
5,6.66,"O=C(COc1ccccc1)Nc1ccc2ncn(Cc3ccc(Cl)c(Cl)c3)c(=O)c2c1 [XV, N-{3-[(3,4-dichlorophenyl)methyl]-4-oxo(3-hydroquinazolin-6-yl)}-2-phenoxyacetamide]"
6,6.77,"O=C(Nc1ccc2ncn(Cc3ccc(Cl)c(Cl)c3)c(=O)c2c1)OCc1cccnc1 [XXIII, N-{3-[(3,4-dichlorophenyl)methyl]-4-oxo(3-hydroquinazolin-6-yl)}(3-pyridylmethoxy)carboxamide]"
7,5.51,"O=C(COc1cccnc1)Nc1ccc2ncn(Cc3ccc(Cl)c(Cl)c3)c(=O)c2c1 [XXXVI, N-{3-[(3,4-dichlorophenyl)methyl]-4-oxo(3-hydroquinazolin-6-yl)}-2-(3-pyridyloxy)acetamide]"
8,5.46,"O=C(COc1ccc(F)cc1F)Nc1ccc2ncn(Cc3ccc(Cl)c(Cl)c3)c(=O)c2c1 [XXVIII, N-{3-[(3,4-dichlorophenyl)methyl]-4-oxo(3-hydroquinazolin-6-yl)}-2-(2,4-difluorophenoxy)acetamide]"
9,5.77,"O=C(COc1ccccc1)Nc1ccc2c(=O)n(Cc3ccc(Cl)c(Cl)c3)cnc2c1 [LIII, N-{3-[(3,4-dichlorophenyl)methyl]-4-oxo(3-hydroquinazolin-7-yl)}-2-phenoxyacetamide]"
10,6.80,"O=C(Nc1ccc2ncn(Cc3ccc(Cl)c(Cl)c3)c(=O)c2c1)OCc1ccccc1 [I, N-{3-[(3,4-dichlorophenyl)methyl]-4-oxo(3-hydroquinazolin-6-yl)}(phenylmethoxy)carboxamide]"

# Same assay, conditions: Table 2 (Example 21, procedures of Example 20); rat liver microsomes, [3H]stearoyl CoA substrate
row,pIC50,SMILES
1,5.51,"COCCNC(=O)c1ccc2c(=O)n(Cc3ccc(Cl)cc3)cnc2c1 [compound 93, 3-(4-chlorobenzyl)-N-(2-methoxyethyl)-4-oxo-3,4-dihydroquinazoline-7-carboxamide]"
2,6.19,"O=C(CO)Nc1ccc2ncn(CCCOc3cccc(Cl)c3Cl)c(=O)c2c1 [compound 65, N-(3-(3-(2,3-dichlorophenoxy)propyl)-4-oxo-3,4-dihydroquinazolin-6-yl)-2-hydroxyacetamide]"
3,7.24,"C[C@H](c1ccc(Cl)c(Cl)c1)n1cnc2cc(NC(=O)CO)ccc2c1=O [compound 36, (R)—N-(3-(1-(3,4-dichlorophenyl)ethyl)-4-oxo-3,4-dihydroquinazolin-7-yl)-2-hydroxyacetamide]"
4,7.26,"O=C(Nc1ccc2ncn(CCCOc3cc(Cl)ccc3Cl)c(=O)c2c1)OCc1ccccc1 [compound 44, benzyl 3-(3-(2,5-dichlorophenoxy)propyl)-4-oxo-3,4-dihydroquinazolin-6-ylcarbamate]"
5,5.57,"O=C(NCCO)c1ccc2ncn(Cc3ccc(Cl)c(Cl)c3)c(=O)c2c1 [compound 81, 3-(3,4-dichlorobenzyl)-N-(2-hydroxyethyl)-4-oxo-3,4-dihydroquinazoline-6-carboxamide]"
6,5.85,"COc1cccc(Cn2cnc3ccc(NC(=O)OCc4ccccc4)cc3c2=O)c1 [compound 12, benzyl 3-(3-methoxybenzyl)-4-oxo-3,4-dihydroquinazolin-6-ylcarbamate]"
7,6.14,"O=C(Nc1ccc2ncn(Cc3ccc4ccccc4c3)c(=O)c2c1)OCc1ccccc1 [compound 32, benzyl 3-(naphthalen-2-ylmethyl)-4-oxo-3,4-dihydroquinazolin-6-ylcarbamate]"
8,4.59,"CC(=O)Nc1ccc2ncn(Cc3ccc(F)c(F)c3)c(=O)c2c1 [compound 18, N-(3-(3,4-difluorobenzyl)-4-oxo-3,4-dihydroquinazolin-6-yl)acetamide]"
9,4.96,"O=C(CO)Nc1ccc2ncn(CCCOc3cc(C(F)(F)F)ccc3Cl)c(=O)c2c1 [compound 66, N-(3-(3-(2-chloro-5-(trifluoromethyl)phenoxy)propyl)-4-oxo-3,4-dihydroquinazolin-6-yl)-2-hydroxyacetamide]"
10,6.04,"O=C(CO)Nc1ccc2ncn(Cc3ccc(F)c(C(F)(F)F)c3)c(=O)c2c1 [compound 16, N-(3-(4-fluoro-3-(trifluoromethyl)benzyl)-4-oxo-3,4-dihydroquinazolin-6-yl)-2-hydroxyacetamide]"
11,7.70,"O=C(CO)Nc1ccc2ncn(CCc3ccc(Cl)cc3)c(=O)c2c1 [compound 37, N-(3-(4-chlorophenethyl)-4-oxo-3,4-dihydroquinazolin-6-yl)-2-hydroxyacetamide]"
12,7.16,"O=C(Nc1ccc2ncn(CCCOc3ccccc3C(F)(F)F)c(=O)c2c1)OCc1ccccc1 [compound 41, benzyl 4-oxo-3-(3-(2-(trifluoromethyl)phenoxy)propyl)-3,4-dihydroquinazolin-6-ylcarbamate]"

# Source: patent US20090105283A1, “3-HYDROQUINAZOLIN-4-ONE DERIVATIVES FOR USE AS STEAROYL CoA DESATURASE INHIBITORS” (priority 2007, published 2009)
